Patent US7763624B2, “Substituted pyrazolo[3,4-d]pyrimidines as ACK-1 and LCK inhibitors” (Amgen Inc., priority 2005, dated 2010)
Where two headings read alike, the source gives them in different places.

Experiments:
LCK = target: T1, LCK (Homo sapiens, UniProt P06239); test: LCK-Homogeneous Time Resolved Fluorescent (HTRF) Kinase Assay; assay type: biochemical
T1 construct: 15 μL of LCK KD GST (225-509) for a final volume of 40 μL; GST
Experimental: LCK-Homogeneous Time Resolved Fluorescent (HTRF) Kinase Assay
The LCK HTRF assay begins with LCK in the presence of ATP phosphorylating the biotinylated peptide Gastrin. The reaction incubates for 90 min. To quench the assay detection reagents are added which both stop the reaction by diluting out the enzyme and chelating the metals due to the presence of EDTA. Once the detection reagents are added the assay incubates for 30 min to allow for equilibration of the detection reagents.
Buffer conditions are as follows: 50 mM HEPES pH 7.5, 50 mM NaCl, 20 mM MgCl2, 5 mM MnCl2, 2 mM DTT, 0.05% BSA.
The assay is quenched and stopped with 160 μL of a detection reagent. Detection reagents are as follows: Buffer made of 50 mM Tris, pH 7.5, 100 mM NaCl, 3 mM EDTA, 0.05% BSA, 0.1% Tween20.
The assay plate is read in either a Discovery or a RubyStar.

ACK1 = target: T2, ACK1 (Homo sapiens, UniProt Q07912); test: ACK1 Enzymatic Assay (PGT/autophosphorylation ELISA); assay type: biochemical
T2 construct: a fusion of an N-terminal (His)6 Tag with amino acids 117 to 489 of ACK1; (His)6 (N); made in house; host or cells: baculovirus infected Hi-5 insect cells
T2 sequence (Q07912 117-489): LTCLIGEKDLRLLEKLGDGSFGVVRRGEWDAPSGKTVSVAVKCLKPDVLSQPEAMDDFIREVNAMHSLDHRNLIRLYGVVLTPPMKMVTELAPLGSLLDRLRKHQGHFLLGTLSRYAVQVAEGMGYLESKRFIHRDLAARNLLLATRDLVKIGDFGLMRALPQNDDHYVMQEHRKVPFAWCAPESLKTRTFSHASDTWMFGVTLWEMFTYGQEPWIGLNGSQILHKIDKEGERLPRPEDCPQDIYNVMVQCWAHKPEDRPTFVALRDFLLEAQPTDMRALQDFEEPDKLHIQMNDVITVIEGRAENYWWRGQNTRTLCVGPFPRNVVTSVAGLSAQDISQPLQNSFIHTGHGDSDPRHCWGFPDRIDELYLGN
Experimental: IC50 values of compounds of the invention may be assessed as follows. The ACK1 kinase assay utilizes a protein expressed in baculovirus infected Hi-5 cells (a fusion of an N-terminal (His)6 Tag with amino acids 117 to 489 of ACK1) purified by affinity chromatography on a Ni-NTA column. The substrate for the reaction is ACK1 itself (autophosphorylation) and poly-Glutamic acid-Tyrosine (PGT (4:1), Sigma catalog #PO275). The PGT is coated to Nunc 96 well plates at 80 μg/mL overnight at 4° C. The morning after coating, the plates are washed twice, and […] reaction buffer (10 mM Hepes, pH 7.6; 20 mM MgCl2; 75 mM NaCl, 0.125% TWEEN20 (polyoxyethylene sorbitan monolaurate); 1 mM DTT) with 5 μM ATP are added to each well. Test compounds are added in […] DMSO, and the reaction is started by addition of […] kinase in assay buffer. The reaction proceeds for 2 h at room temperature. Next, the plates are washed four times, and the level of tyrosine phosphorylation in a given well is quantified by standard ELISA assay utilizing a phosphotyrosine antibody (PY20, Pierce).

C8 cells = test: ACK1 Cell Based Assay (survival under low serum, Cytotox One); conditions: read-out: ACK1 Cell-based IC50
Experimental: ACK1 Cell Based Assay The ACK1 cell based assay is designed to find inhibitors of ACK1 kinase activity which would be prime candidates for the development of anticancer drugs. […] After 20 to 24 h incubation at 37° C. and 5% CO2, cell viability is determined using the Cytotox One kit (Promega) according to the manufacturer's instructions.

[1] = ACK1-dependent C8 cells, 0.125% FCS, 20 to 24 h

T1 sequence (P06239 225-509): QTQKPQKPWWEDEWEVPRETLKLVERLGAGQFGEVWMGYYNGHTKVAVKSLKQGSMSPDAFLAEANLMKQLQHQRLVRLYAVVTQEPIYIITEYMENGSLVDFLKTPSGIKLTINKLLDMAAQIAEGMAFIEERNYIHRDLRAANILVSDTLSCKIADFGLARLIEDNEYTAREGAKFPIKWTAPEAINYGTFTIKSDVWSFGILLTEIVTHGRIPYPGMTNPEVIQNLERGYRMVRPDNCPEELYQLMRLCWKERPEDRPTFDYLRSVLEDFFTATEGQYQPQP

| Molecule | Ki (LCK) [nM] | Ki (ACK1) [nM] | IC50 (C8 cells; [1]) [nM] | IC50 (C8 cells) [nM] |
| --- | --- | --- | --- | --- |
| COC(C)(C)CCn1nc(Nc2c(C)cc(F)cc2C)c2cnc(Nc3ccc(N4CCN(C)CC4)cc3)nc21 [Compound 79, N^3-(4-Fluoro-2,6-dimethyl-phenyl)-1-(3-methoxy-3-methyl-butyl)-N^6-[4-(4-methyl-piperazin-1-yl)-phenyl]-1H-pyrazolo[3,4-d]pyrimidine-3,6-diamine] | < 10 | 10 to 100 | 10 to 100 | – |
| COC(C)(C)CCn1nc(Nc2c(Cl)cccc2Cl)c2ccc(Nc3ccc(N4CCN(C(=O)OCC5c6ccccc6-c6ccccc65)CC4)cc3)cc21 [Compound 81, (9H-Fluoren-9-yl)methyl 4-(4-(3-(2,6-dichlorophenylamino)-1-(3-methoxy-3-methyl-butyl)-1H-indazol-6-ylamino)phenyl)piperazine-1-carboxylate] | < 10 | 10 to 100 | – | > 100 |
| COC(C)(C)CCn1nc(Nc2c(Cl)cccc2Cl)c2cnc(Nc3ccc(OCCN4CCCC4)c(F)c3)nc21 [Compound 82, N^3-(2,6-Dichlorophenyl)-N^6-(3-fluoro-4-(2-(pyrrolidin-1-yl)ethoxy)phenyl)-1-(3-methoxy-3-methylbutyl)-1H-pyrazolo[3,4-d]pyrimidine-3,6-diamine] | < 10 | < 10 | – | 10 to 100 |
| COC(C)(C)CCn1nc(Nc2c(Cl)cccc2Cl)c2ccc(Nc3ccc(N4CCNCC4)cc3)cc21 [Compound 84] | < 10 | 10 to 100 | 10 to 100 | – |
| C=CCCn1nc(Nc2c(Cl)cccc2Cl)c2cnc(Nc3ccccc3)nc21 [Compound 87, 1-(But-3-enyl)-N^3-(2,6-dichlorophenyl)-N^6-phenyl-1H-pyrazolo[3,4-d]pyrimidine-3,6-diamine] | < 10 | 10 to 100 | > 100 | – |
| OCC(O)CCn1nc(Nc2c(Cl)cccc2Cl)c2cnc(Nc3ccccc3)nc21 (stereo not drawn) [Compound 88, 4-(3-(2,6-dichlorophenylamino)-6-(phenylamino)-1H-pyrazolo[3,4-d]pyrimidin-1-yl)butane-1,2-diol] | < 10 | 10 to 100 | 10 to 100 | – |
| CN(C)CCCn1nc(Nc2c(Cl)cccc2Cl)c2cnc(Nc3ccccc3)nc21 [Compound 89, N^3-(2,6-Dichlorophenyl)-1-(3-(dimethylamino)propyl)-N^6-phenyl-1H-pyrazolo[3,4-d]pyrimidine-3,6-diamine] | < 10 | < 10 | 10 to 100 | – |
| Clc1cccc(Cl)c1Nc1nn(CCC2CCNCC2)c2nc(Nc3ccccc3)ncc12 [Compound 94, N^3-(2,6-dichlorophenyl)-N^6-phenyl-1-(2-(piperidin-4-yl)ethyl)-1H-pyrazolo[3,4-d]pyrimidine-3,6-diamine] | < 10 | 10 to 100 | > 100 | – |
| (R)—N^3-(2,6-Dimethylphenyl)-1-(3-(2-(methoxymethyl)pyrrolidin-1-yl)propyl)-1H-indazole-3,6-diamine [Compound 68] | 10 to 100 | > 100 | > 100 | – |
| (R)—N^3-(2,6-Dimethylphenyl)-1-(3-(2-(methoxymethyl)pyrrolidin-1-yl)propyl)-N^6-phenyl-1H-indazole-3,6-diamine [Compound 66] | < 10 | > 100 | > 100 | – |
| (R)—N^3-(2,6-Dimethylphenyl)-N^6-(4-fluorophenyl)-1-(3-(2-(methoxymethyl)pyrrolidin-1-yl)propyl)-1H-indazole-3,6-diamine [Compound 65] | < 10 | > 100 | > 100 | – |
| Ethyl-2-(3-(2,6-dimethylphenylamino)-6-(phenylamino)-1H-indazole-1-yl)acetate [Compound 64] | < 10 | 10 to 100 | > 100 | – |
| N^3-(2,6-Dimethylphenyl)-1-(3-methoxy-3-methylbutyl)-1H-indazole-3,6-diamine [Compound 58] | < 10 | > 100 | > 100 | – |
| N^3-(2,6-Dimethylphenyl)-N^6-phenyl-1-((tetrahydro-2H-pyran-4-yl)methyl)-1H-indazole-3,6-diamine [Compound 63] | < 10 | 10 to 100 | > 100 | – |
| N^3-(2,6-dichlorophenyl)-1-(3-methoxy-3-methylbutyl)-N^6-[4-(4-methyl-piperazin-1-yl)-phenyl]-1H-indazole-3,6-diamine [Compound 80] | < 10 | < 10 | 10 to 100 | – |
| N^3-(2,6-dimethylphenyl)-1-(2-(4-methylpiperazin-1-yl)ethyl)-N^6-phenyl-1H-indazole-3,6-diamine [Compound 72] | < 10 | 10 to 100 | > 100 | – |
